Source: the supplement of paper PMC11061612

Assays:
Test in all cases: combination Emax (second highest fraction inhibited in the dose matrix, 72 h); higher = more inhibition; extreme values may be limits of the assay
[1] = tested on: A253 (Head and Neck Carcinoma)
Procedure, shortened: (§1)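 Cell lines in DMEM/F12 or RPMI with 10% FBS were plated in 1536-well plates, held 24 hours at 37°C, 5% CO2, then given two-drug dose matrices for 72 hours (DMSO typically 0.2%). Viability was read by CellTiter-Glo 2.0 luminescence and scaled as inhibition from 0 (vehicle wells) to 1 (blank wells). Combination Emax is the second-highest inhibition in the matrix; Bliss excess is observed combination effect minus expected EA + EB − EA·EB, EA and EB being single-agent effects.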

[2] = tested on: A2780 (Ovarian Carcinoma)
Procedure, shortened: as §1

[3] = tested on: CESS (Acute Myeloid Leukemia)
Procedure, shortened: as §1

[4] = tested on: CGTH-W-1 (Thyroid Gland Carcinoma)
Procedure, shortened: as §1

[5] = tested on: COLO-792 (Melanoma)
Procedure, shortened: as §1

[6] = tested on: DU-4475 (Breast Carcinoma)
Procedure, shortened: as §1

[7] = tested on: EB2 (Burkitt's Lymphoma)
Procedure, shortened: as §1

[8] = tested on: EPLC-272H (Other Solid Carcinomas)
Procedure, shortened: as §1

[9] = tested on: GA-10 (Burkitt's Lymphoma)
Procedure, shortened: as §1

[10] = tested on: GCT (Other Solid Carcinomas)
Procedure, shortened: as §1

[11] = tested on: HCC1428 (Breast Carcinoma)
Procedure, shortened: as §1

[12] = tested on: IM-9 (Non-Cancerous)
Procedure, shortened: as §1

[13] = tested on: JIMT-1 (Breast Carcinoma)
Procedure, shortened: as §1

[14] = tested on: Jurkat (T-Lymphoblastic Leukemia)
Procedure, shortened: as §1

[15] = tested on: MHH-ES-1 (Ewing's Sarcoma)
Procedure, shortened: as §1

[16] = tested on: NCI-H1651 (Lung Adenocarcinoma)
Procedure, shortened: as §1

[17] = tested on: NCI-H2087 (Lung Adenocarcinoma)
Procedure, shortened: as §1

[18] = tested on: NCI-H441 (Lung Adenocarcinoma)
Procedure, shortened: as §1

[19] = tested on: RH-41 (Rhabdomyosarcoma)
Procedure, shortened: as §1

[20] = tested on: UACC-812 (Breast Carcinoma)
Procedure, shortened: as §1

Structure (SMILES)	combination Emax [1]	combination Emax [2]	combination Emax [3]	combination Emax [4]	combination Emax [5]	combination Emax [6]	combination Emax [7]	combination Emax [8]	combination Emax [9]	combination Emax [10]	combination Emax [11]	combination Emax [12]	combination Emax [13]	combination Emax [14]	combination Emax [15]	combination Emax [16]	combination Emax [17]	combination Emax [18]	combination Emax [19]	combination Emax [20]
CN(C)CCCOc1ccc(-c2ccc3ncc4c(c3c2)n(C2CCOCC2)c(=O)n4C)cn1 [AZD0156] + C[C@@H]1COCCN1C2=NC(=NC(=C2)C3(CC3)[S@](=N)(=O)C)C4=C5C=CNC5=NC=C4 [AZD6738] (first compound max 1 µM, 7x7, partner max 10 µM)	0.794	0.81	0.923	0.35	0.273	0.913	0.774	0.903	1	0.231	0.132	0.976	0.799	0.898	0.638	0.649	0.666	0.435	0.874	0.295
COc1nnc2ccc(N3CCC(c4ccc(OCCN5CCN(C)C(=O)[C@H]5C)cc4)CC3)nn12 [AZD5153] + C=CCn1c(=O)c2cnc(Nc3ccc(N4CCN(C)CC4)cc3)nc2n1-c1cccc(C(C)(C)O)n1 [AZD1775] (first compound max 1 µM, partner max 1 µM)	0.356	0.844	0.941	0.275	0.856	1	0.796	0.862	0.996	0.617	0.718	0.975	0.622	0.983	0.764	0.822	0.627	0.436	0.996	0.376
CC1(C)CCC(CN2CCN(c3ccc(C(=O)NS(=O)(=O)c4ccc(NCC5CCOCC5)c([N+](=O)[O-])c4)c(Oc4cnc5[nH]ccc5c4)c3)CC2)=C(c2ccc(Cl)cc2)C1 [Venetoclax] + COc1cc(Nc2ncc3c(n2)-c2ccc(Cl)cc2C(c2c(F)cccc2OC)=NC3)ccc1C(=O)O [Alisertib] (first compound max 1 µM, 7x7, partner max 10 µM)	0.444	0.709	0.89	0.598	0.405	0.807	0.803	0.514	0.995	0.463	0.339	1	0.268	0.741	0.795	0.269	0.177	0.343	0.765	0.224
CN(C)CCCOc1ccc(-c2ccc3ncc4c(c3c2)n(C2CCOCC2)c(=O)n4C)cn1 [AZD0156] + O=C(c1cc(Cc2n[nH]c(=O)c3ccccc23)ccc1F)N1CCN(C(=O)C2CC2)CC1 [Olaparib] (first compound max 3 µM, partner max 3 µM)	0.186	0.595	0.376	0.214	0.294	0.434	0.496	0.503	0.741	0.282	0.228	0.656	0.0881	0.511	0.801	0.493	0.12	0.328	0.586	0.261
Cn1cnc2c(F)c(Nc3ccc(Br)cc3Cl)c(C(=O)NOCCO)cc21 [Selumetinib] + C=CCn1c(=O)c2cnc(Nc3ccc(N4CCN(C)CC4)cc3)nc2n1-c1cccc(C(C)(C)O)n1 [AZD1775] (first compound max 10 µM, partner max 1 µM)	0.336	0.799	0.944	0.0375	0.694	1	0.785	0.857	1	0.384	0.211	1	0.6	0.875	0.726	0.574	0.559	0.41	0.974	0.138
Cc1c2c(nn1C)CSCc1cc(n(C)n1)CSc1cc(c3ccccc3c1)OCCCc1c(C(=O)O)n(C)c3c-2c(Cl)ccc13 [AZD5991] + C[C@@H]1COCCN1C2=NC(=NC(=C2)C3(CC3)[S@](=N)(=O)C)C4=C5C=CNC5=NC=C4 [AZD6738] (first compound max 1 µM, 7x7, partner max 10 µM)	0.976	0.922	0.958	0.389	1	0.978	0.8	0.993	0.998	0.411	0.974	1	0.723	0.974	0.837	0.714	0.588	0.39	1	0.674
C=CCn1c(=O)c2cnc(Nc3ccc(N4CCN(C)CC4)cc3)nc2n1-c1cccc(C(C)(C)O)n1 [AZD1775] + C1CN(CCC1(C(=O)N[C@@H](CCO)C2=CC=C(C=C2)Cl)N)C3=NC=NC4=C3C=CN4 [Capivasertib] (first compound max 3 µM, partner max 3 µM)	0.848	0.873	0.874	0.211	0.651	0.998	0.822	0.834	0.964	0.623	0.524	1	0.76	0.986	0.833	0.794	0.501	0.454	0.801	0.466
